Values after ≈ are worked out from the molar mass of the structure shown.
Legend:
Format in all cases: functional
Salmonella typhi = assay: Antibacterial activity against Salmonella enterica subsp. enterica serovar Typhi ATCC 15499 assessed as growth inhibition after 24 hr by two-fold serial dilution method; details: ATCC 15499, 24 h
Bacillus cereus = assay: Antibacterial activity against Bacillus cereus MTCC 7350 assessed as growth inhibition after 24 hr by two-fold serial dilution method; details: MTCC 7350, 24 h
Pseudomonas aeruginosa = assay: Antibacterial activity against Pseudomonas aeruginosa ATCC 23564 assessed as growth inhibition after 24 hr by two-fold serial dilution method; details: ATCC 23564, 24 h
Enterococcus faecalis = assay: Antibacterial activity against Enterococcus feacalis clinical isolate assessed as growth inhibition after 24 hr by two-fold serial dilution method
Staphylococcus aureus = assay: Antibacterial activity against Staphylococcus aureus ATCC 11632 assessed as growth inhibition after 24 hr by two-fold serial dilution method; details: ATCC 11632, 24 h
Escherichia coli = assay: Antibacterial activity against Escherichia coli ATCC 35218 assessed as growth inhibition after 24 hr by two-fold serial dilution method; details: ATCC 35218, 24 h

Row | Structure (SMILES) | MIC (Salmonella typhi) [µg/mL] | MIC (Bacillus cereus) [µg/mL] | MIC (Pseudomonas aeruginosa) [µg/mL] | MIC (Enterococcus faecalis) [µg/mL] | MIC (Staphylococcus aureus) [µg/mL] | MIC (Escherichia coli) [µg/mL]
1 | c1ccc(-c2nc3ccccc3[nH]2)cc1 | 6.25 (≈ 32.2 µM) | 50 (≈ 257 µM) | 12.5 (≈ 64.4 µM) | 12.5 (≈ 64.4 µM) | 12.5 (≈ 64.4 µM) | 50 (≈ 257 µM)
2 | Oc1ccccc1-c1nc2ccccc2[nH]1 | 400 (≈ 1900 µM) | 6.25 (≈ 29.7 µM) | 25 (≈ 119 µM) | 50 (≈ 238 µM) | 25 (≈ 119 µM) | 400 (≈ 1900 µM)
3 | Cc1ccc(-c2nc3ccccc3[nH]2)cc1 | 50 (≈ 240 µM) | 200 (≈ 960 µM) | 12.5 (≈ 60 µM) | 50 (≈ 240 µM) | 25 (≈ 120 µM) | 50 (≈ 240 µM)
4 | C(=C\c1ccc(-c2nc3ccccc3[nH]2)cc1)/c1ccccc1 | 25 (≈ 84.4 µM) | 6.25 (≈ 21.1 µM) | 12.5 (≈ 42.2 µM) | 25 (≈ 84.4 µM) | 12.5 (≈ 42.2 µM) | 50 (≈ 169 µM)
5 | Oc1ccc(-c2nc3ccccc3[nH]2)cc1 | 400 (≈ 1900 µM) | 50 (≈ 238 µM) | 25 (≈ 119 µM) | 100 (≈ 476 µM) | 25 (≈ 119 µM) | 400 (≈ 1900 µM)
6 | COc1ccc(-c2nc3ccccc3[nH]2)cc1 | 25 (≈ 111 µM) | 50 (≈ 223 µM) | 25 (≈ 111 µM) | 25 (≈ 111 µM) | 12.5 (≈ 55.7 µM) | 50 (≈ 223 µM)
7 | Clc1ccc(-c2nc3ccccc3[nH]2)cc1 | 25 (≈ 109 µM) | 6.25 (≈ 27.3 µM) | 12.5 (≈ 54.7 µM) | 12.5 (≈ 54.7 µM) | 12.5 (≈ 54.7 µM) | 25 (≈ 109 µM)
8 | O=[N+]([O-])c1ccc(-c2nc3ccccc3[nH]2)cc1 | 25 (≈ 105 µM) | 25 (≈ 105 µM) | 12.5 (≈ 52.3 µM) | 25 (≈ 105 µM) | 50 (≈ 209 µM) | 50 (≈ 209 µM)
9 | CC1(C)S[C@@H]2[C@H](NC(=O)[C@H](N)c3ccccc3)C(=O)N2[C@H]1C(=O)O [AMPICILLIN] | 6.25 (≈ 17.9 µM) | 50 (≈ 143 µM) | 50 (≈ 143 µM) | 400 (≈ 1140 µM) | 50 (≈ 143 µM) | 400 (≈ 1140 µM)
10 | O=C(O)c1cn(C2CC2)c2cc(N3CCNCC3)c(F)cc2c1=O [CIPROFLOXACIN] | 3.12 (≈ 9.42 µM) |  | 1.25 (≈ 3.77 µM) |  |  | 

Source: ChEMBL document CHEMBL3044904, “Mild and highly efficient copper (II) sulfate catalyzed one pot synthesis of 2-aryl benzimidazole using atmospheric air as an oxidant and its antibacterial study” (2013)
